Results published in ChEMBL document CHEMBL1156448, “Identification of an efficacy switch region in the ghrelin receptor responsible for interchange between agonism and inverse agonism” (J Biol Chem, 2007).
pIC50: −log10 of the molar value.

Columns and labels:
[1] = biological target: T1, Growth hormone secretagogue receptor type 1 (Homo sapiens, UniProt Q92847); assay: Displacement of [35S]MK677 from human ghrelin receptor expressed in african green monkey COS7 cells; assay type: cell-based, COS-7
[2] = biological target: T1, Growth hormone secretagogue receptor type 1; assay: Inverse agonist activity at human ghrelin receptor expressed in african green monkey COS7 cells assessed as constitutively stimulated inositol phosphate accumulation; assay type: functional, cell-based, COS-7

T1 sequence (Q92847 whole entry): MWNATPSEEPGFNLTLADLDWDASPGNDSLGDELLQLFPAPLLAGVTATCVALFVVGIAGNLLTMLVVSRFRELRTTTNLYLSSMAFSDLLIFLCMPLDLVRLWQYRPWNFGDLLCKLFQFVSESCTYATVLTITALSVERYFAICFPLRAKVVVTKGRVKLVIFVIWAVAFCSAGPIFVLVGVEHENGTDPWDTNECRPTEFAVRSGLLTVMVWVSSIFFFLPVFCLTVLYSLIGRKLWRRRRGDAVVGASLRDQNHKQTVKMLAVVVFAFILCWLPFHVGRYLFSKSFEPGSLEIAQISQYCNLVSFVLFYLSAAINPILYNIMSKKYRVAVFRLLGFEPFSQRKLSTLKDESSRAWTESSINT

Row | pIC50 [1] | pIC50 [2] | Structure (SMILES)
1 | 7.92 | 7.68 | CC(C)C[C@H](NC(=O)[C@H](CC(C)C)NC(=O)[C@@H](Cc1c[nH]c2ccccc12)NC(=O)[C@H](Cc1ccccc1)NC(=O)[C@@H](Cc1c[nH]c2ccccc12)NC(=O)[C@@H](N)CCCN=C(N)N)C(N)=O
2 | 7.24 | 7.17 | CC(C)C[C@H](NC(=O)[C@H](CC(C)C)NC(=O)[C@@H](Cc1c[nH]c2ccccc12)NC(=O)[C@H](Cc1ccccc1)NC(=O)[C@@H](Cc1c[nH]c2ccccc12)NC(=O)[C@@H](N)Cc1cnc[nH]1)C(N)=O
